Assay results published in paper PMC4319022 (The Journal of Biological Chemistry, 2014).
Read-outs that look alike come from different tables or passages of the source.

What was measured:
human α7 nAChR [1] = biological target: T1, human α7 nAChR (Homo sapiens, UniProt P36544); test: two-electrode voltage clamp, Xenopus oocytes; assay type: cell-based
T1 construct: gene CHRNA7; full-length subunit cDNA in pSP64GL, cRNA injected in Xenopus laevis oocytes, homopentamer
Description: two-electrode voltage clamp, Xenopus oocytes on human α7 nAChR

human α7 nAChR [2] = biological target: T1, human α7 nAChR; test: two-electrode voltage clamp, Xenopus oocytes; assay type: cell-based; remark: listed apart in the source

T1 sequence (P36544 23-502): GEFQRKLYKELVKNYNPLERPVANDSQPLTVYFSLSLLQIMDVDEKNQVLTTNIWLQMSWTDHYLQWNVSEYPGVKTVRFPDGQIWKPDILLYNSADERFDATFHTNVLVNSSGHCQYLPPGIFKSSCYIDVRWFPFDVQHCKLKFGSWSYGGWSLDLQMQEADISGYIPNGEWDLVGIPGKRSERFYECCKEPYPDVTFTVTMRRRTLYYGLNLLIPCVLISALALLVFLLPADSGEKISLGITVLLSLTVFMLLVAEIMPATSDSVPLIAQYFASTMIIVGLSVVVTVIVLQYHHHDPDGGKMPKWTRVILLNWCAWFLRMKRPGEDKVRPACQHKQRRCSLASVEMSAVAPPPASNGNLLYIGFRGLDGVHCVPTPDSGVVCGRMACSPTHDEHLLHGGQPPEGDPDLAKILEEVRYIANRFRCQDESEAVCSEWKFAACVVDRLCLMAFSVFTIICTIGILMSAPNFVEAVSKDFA

Cc1cc(C)c(C2Nc3ccc(S(N)(=O)=O)cc3C3C=CCC32)c(C)c1C (stereo not drawn) [2,3,4,6MP-TQS, cis-trans-4-(2,3,4,6-tetramethylphenyl)-3a,4,5,9b-tetrahydro-3H-cyclopenta[c]quinoline-8-sulfonamide]
EC50 (human α7 nAChR [1]; read-out: EC50): 9.1 ± 2 µM

Cc1ccc(C2Nc3ccc(S(N)(=O)=O)cc3C3C=CCC32)c(C)c1C (stereo not drawn) [2,3,4MP-TQS, cis-cis-4-(2,3,4-trimethylphenyl)-3a,4,5,9b-tetrahydro-3H-cyclopenta[c]quinoline-8-sulfonamide]
EC50 (human α7 nAChR [1]; read-out: EC50): 9.8 ± 0.8 µM

Cc1cc(C)c(C)c(C2Nc3ccc(S(N)(=O)=O)cc3C3C=CCC32)c1 (stereo not drawn) [2,3,5MP-TQS, cis-cis-4-(2,3,5-trimethylphenyl)-3a,4,5,9b-tetrahydro-3H-cyclopenta[c]quinoline-8-sulfonamide]
EC50 (human α7 nAChR [1]; read-out: EC50): 3.9 ± 0.7 µM

Cc1ccc(C)c(C2Nc3ccc(S(N)(=O)=O)cc3C3C=CCC32)c1C (stereo not drawn) [2,3,6MP-TQS, cis-trans-4-(2,3,6-trimethylphenyl)-3a,4,5,9b-tetrahydro-3H-cyclopenta[c]quinoline-8-sulfonamide]
IC50 (human α7 nAChR [2]): 23 ± 2.8 µM

Cc1cc(C)c(C2Nc3ccc(S(N)(=O)=O)cc3C3C=CCC32)c(C)c1 (stereo not drawn) [2,4,6MP-TQS, cis-trans-4-mesityl-3a,4,5,9b-tetrahydro-3H-cyclopenta[c]quinoline-8-sulfonamide]
IC50 (human α7 nAChR [2]): 5.2 ± 0.8 µM

Cc1ccc(C2Nc3ccc(S(N)(=O)=O)cc3C3C=CCC32)c(C)c1 (stereo not drawn) [2,4MP-TQS, cis-cis-4-(2,4-dimethylphenyl)-3a,4,5,9b-tetrahydro-3H-cyclopenta[c]quinoline-8-sulfonamide]
EC50 (human α7 nAChR [1]; read-out: EC50): 11 ± 1 µM

Cc1cccc(C)c1C1Nc2ccc(S(N)(=O)=O)cc2C2C=CCC21 (stereo not drawn) [2,6MP-TQS, cis-trans-4-(2,6-dimethylphenyl)-3a,4,5,9b-tetrahydro-3H-cyclopenta[c]quinoline-8-sulfonamide]
IC50 (human α7 nAChR [2]): 43 ± 14 µM

Cc1ccccc1C1Nc2ccc(S(N)(=O)=O)cc2C2C=CCC21 (stereo not drawn) [2MP-TQS, cis-cis-4-o-tolyl-3a,4,5,9b-tetrahydro-3H-cyclopenta[c]quinoline-8-sulfonamide]
EC50 (human α7 nAChR [1]; read-out: EC50): 16 ± 1.3 µM

Cc1ccc(C2Nc3ccc(S(N)(=O)=O)cc3C3C=CCC32)cc1C (stereo not drawn) [3,4MP-TQS, cis-cis-4-(3,4-dimethylphenyl)-3a,4,5,9b-tetrahydro-3H-cyclopenta[c]quinoline-8-sulfonamide]
Imax (human α7 nAChR [1]; 100 μM, allosteric agonist, relative to 3 mM acetylcholine, -60 mV): 7.8 ± 3.0 fold effect

Cc1cc(C)cc(C2Nc3ccc(S(N)(=O)=O)cc3C3C=CCC32)c1 (stereo not drawn) [3,5MP-TQS, cis-cis-4-(3,5-dimethylphenyl)-3a,4,5,9b-tetrahydro-3H-cyclopenta[c]quinoline-8-sulfonamide]
EC50 (human α7 nAChR [1]; read-out: EC50): 3.7 ± 1.2 µM

Cc1cccc(C2Nc3ccc(S(N)(=O)=O)cc3C3C=CCC32)c1 (stereo not drawn) [3MP-TQS, cis-cis-4-m-tolyl-3a,4,5,9b-tetrahydro-3H-cyclopenta[c]quinoline-8-sulfonamide]
Fold potentiation (human α7 nAChR [1]; allosteric potentiation (type II PAM) of 100 μM acetylcholine, maximal PAM concentration (100 μM, Figure 4), -60 mV): 22 ± 2.1 fold

Cc1ccc(C2Nc3ccc(S(N)(=O)=O)cc3C3C=CCC32)cc1 (stereo not drawn) [4MP-TQS, cis-cis-4-p-tolyl-3a,4,5,9b-tetrahydro-3H-cyclopenta[c]quinoline-8-sulfonamide]
EC50 (human α7 nAChR [1]; read-out: EC50): 27 ± 3.1 µM

Cc1c(C)c(C)c(C2Nc3ccc(S(N)(=O)=O)cc3C3C=CCC32)c(C)c1C (stereo not drawn) [PentaMP-TQS, cis-trans-4-(2,3,4,5,6-pentamethylphenyl)-3a,4,5,9b-tetrahydro-3H-cyclopenta[c]quinoline-8-sulfonamide]
EC50 (human α7 nAChR [1]; allosteric potentiation (type I PAM) of 100 μM acetylcholine, 10 s preapplication, -60 mV, bell-shaped curve, unreliable): 0.55 ± 0.36 µM
